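A five-concentration, 48-hour dose response in 96-well plates underlies each endpoint, interpolated linearly between surrounding concentrations. At the GI50, growth is halved.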 The source made the active and inactive calls. No stated cut-off is given here; in the data, active = GI50 up to about 1.1 µM and inactive = higher.
Key:
Assay in all cases: growth of human tumour cells (NCI), 48 h
IGROV-1 = system: IGROV-1
MCF7 = system: MCF7
OVCAR-8 = system: OVCAR-8
EKVX = system: EKVX
A498 = system: A498
CAKI-1 = system: CAKI-1
SF-539 = system: SF-539
SF-295 = system: SF-295
MDA-N = system: MDA-N
SR = system: SR
Hs-578T = system: Hs-578T
T47D = system: T47D
SNB-19 = system: SNB-19
SK-OV-3 = system: SK-OV-3
HL-60 = system: HL-60
SK-MEL-5 = system: SK-MEL-5
HCC 2998 = system: HCC 2998
ACHN = system: ACHN
MOLT-4 = system: MOLT-4
HOP-92 = system: HOP-92
SF-268 = system: SF-268
SW-620 = system: SW-620
HOP-62 = system: HOP-62
HCT-116 = system: HCT-116
K562 = system: K562
786-0 = system: 786-0
UACC-257 = system: UACC-257
UACC-62 = system: UACC-62
HT-29 = system: HT-29
M14 = system: M14
OVCAR-5 = system: OVCAR-5
UO-31 = system: UO-31
RXF 393 = system: RXF 393
PC-3 = system: PC-3
DU-145 = system: DU-145
SK-MEL-28 = system: SK-MEL-28
U-251 = system: U-251
MDA-MB-231 = system: MDA-MB-231
Malme-3M = system: Malme-3M
A549 = system: A549
OVCAR-4 = system: OVCAR-4
KM12 = system: KM12
NCI-H23 = system: NCI-H23
MDA-MB-435 = system: MDA-MB-435
SNB-75 = system: SNB-75
NCI-H460 = system: NCI-H460
NCI-H226 = system: NCI-H226
CCRF-CEM = system: CCRF-CEM
NCI-H522 = system: NCI-H522
OVCAR-3 = system: OVCAR-3
COLO 205 = system: COLO 205
BT-549 = system: BT-549
SN12C = system: SN12C
TK-10 = system: TK-10
HCT-15 = system: HCT-15
NCI/ADR-RES = system: NCI/ADR-RES
RPMI-8226 = system: RPMI-8226
SK-MEL-2 = system: SK-MEL-2
LOX IMVI = system: LOX IMVI

CCNC(=O)Nc1cccc(NC(=O)NCC)n1
GI50 (IGROV-1): > 100 µM (inactive)
GI50 (MCF7): 57.1 µM (inactive)
GI50 (OVCAR-8): > 100 µM (inactive)
GI50 (EKVX): 35.8 µM (inactive)
GI50 (A498): 60.1 µM (inactive)
GI50 (CAKI-1): 75.2 µM (inactive)
GI50 (SF-539): > 100 µM (inactive)
GI50 (SF-295): > 100 µM (inactive)
GI50 (MDA-N): > 100 µM (inactive)
GI50 (SR): 51.4 µM (inactive)
GI50 (Hs-578T): > 100 µM (inactive)
GI50 (T47D): > 100 µM (inactive)
GI50 (SNB-19): > 100 µM (inactive)
GI50 (SK-OV-3): > 100 µM (inactive)
GI50 (HL-60): 34.1 µM (inactive)
GI50 (SK-MEL-5): > 100 µM (inactive)
GI50 (HCC 2998): 62.1 µM (inactive)
GI50 (ACHN): > 100 µM (inactive)
GI50 (MOLT-4): > 100 µM (inactive)
GI50 (HOP-92): 50.4 µM (inactive)
GI50 (SF-268): > 100 µM (inactive)
GI50 (SW-620): > 100 µM (inactive)
GI50 (HOP-62): 81.8 µM (inactive)
GI50 (HCT-116): > 100 µM (inactive)
GI50 (K562): > 100 µM (inactive)
GI50 (786-0): > 100 µM (inactive)
GI50 (UACC-257): 92.9 µM (inactive)
GI50 (UACC-62): 36 µM (inactive)
GI50 (HT-29): 76.4 µM (inactive)
GI50 (M14): > 100 µM (inactive)
GI50 (OVCAR-5): > 100 µM (inactive)
GI50 (UO-31): 43.8 µM (inactive)
GI50 (RXF 393): > 100 µM (inactive)
GI50 (PC-3): 59.3 µM (inactive)
GI50 (DU-145): > 100 µM (inactive)
GI50 (SK-MEL-28): > 100 µM (inactive)
GI50 (U-251): > 100 µM (inactive)
GI50 (MDA-MB-231): > 100 µM (inactive)
GI50 (Malme-3M): > 100 µM (inactive)
GI50 (A549): > 100 µM (inactive)
GI50 (OVCAR-4): > 100 µM (inactive)
GI50 (KM12): > 100 µM (inactive)
GI50 (NCI-H23): > 100 µM (inactive)
GI50 (MDA-MB-435): > 100 µM (inactive)
GI50 (SNB-75): 24.5 µM (inactive)
GI50 (NCI-H460): > 100 µM (inactive)
GI50 (NCI-H226): > 100 µM (inactive)
GI50 (CCRF-CEM): > 100 µM (inactive)
GI50 (NCI-H522): > 100 µM (inactive)
GI50 (OVCAR-3): > 100 µM (inactive)
GI50 (COLO 205): > 100 µM (inactive)
GI50 (BT-549): > 100 µM (inactive)
GI50 (SN12C): > 100 µM (inactive)
GI50 (TK-10): 50.2 µM (inactive)

C=C1[C@@](C)([C@@H]2CCCS2)[C@H]2C(C)=C[C@]1(C)n1c(=O)n(-c3ccccc3)c(=O)n12
GI50 (IGROV-1): 56.2 µM (inactive)
GI50 (MCF7): > 100 µM (inactive)
GI50 (EKVX): > 100 µM (inactive)
GI50 (A498): > 100 µM (inactive)
GI50 (CAKI-1): > 100 µM (inactive)
GI50 (SF-539): > 100 µM (inactive)
GI50 (SF-295): > 100 µM (inactive)
GI50 (MDA-N): > 100 µM (inactive)
GI50 (Hs-578T): > 100 µM (inactive)
GI50 (T47D): > 100 µM (inactive)
GI50 (SNB-19): > 100 µM (inactive)
GI50 (SK-OV-3): > 100 µM (inactive)
GI50 (HL-60): > 100 µM (inactive)
GI50 (SK-MEL-5): > 100 µM (inactive)
GI50 (HCC 2998): > 100 µM (inactive)
GI50 (ACHN): > 100 µM (inactive)
GI50 (MOLT-4): > 100 µM (inactive)
GI50 (SF-268): > 100 µM (inactive)
GI50 (SW-620): > 100 µM (inactive)
GI50 (HOP-62): > 100 µM (inactive)
GI50 (HCT-116): > 100 µM (inactive)
GI50 (786-0): > 100 µM (inactive)
GI50 (UACC-257): > 100 µM (inactive)
GI50 (UACC-62): > 100 µM (inactive)
GI50 (HT-29): > 100 µM (inactive)
GI50 (M14): > 100 µM (inactive)
GI50 (OVCAR-5): > 100 µM (inactive)
GI50 (UO-31): > 100 µM (inactive)
GI50 (HCT-15): > 100 µM
GI50 (PC-3): > 100 µM (inactive)
GI50 (DU-145): > 100 µM (inactive)
GI50 (SK-MEL-28): > 100 µM (inactive)
GI50 (U-251): > 100 µM (inactive)
GI50 (MDA-MB-231): > 100 µM (inactive)
GI50 (NCI/ADR-RES): > 100 µM (inactive)
GI50 (Malme-3M): > 100 µM (inactive)
GI50 (A549): > 100 µM (inactive)
GI50 (OVCAR-4): > 100 µM (inactive)
GI50 (KM12): > 100 µM (inactive)
GI50 (NCI-H23): > 100 µM (inactive)
GI50 (MDA-MB-435): > 100 µM (inactive)
GI50 (RPMI-8226): > 100 µM (inactive)
GI50 (SNB-75): 46.5 µM (inactive)
GI50 (SK-MEL-2): > 100 µM (inactive)
GI50 (NCI-H460): > 100 µM (inactive)
GI50 (NCI-H226): > 100 µM (inactive)
GI50 (CCRF-CEM): > 100 µM (inactive)
GI50 (NCI-H522): > 100 µM (inactive)
GI50 (OVCAR-3): > 100 µM (inactive)
GI50 (COLO 205): > 100 µM (inactive)
GI50 (BT-549): > 100 µM (inactive)
GI50 (SN12C): > 100 µM (inactive)
GI50 (TK-10): > 100 µM (inactive)

O=S(=O)(O)c1cc(S(=O)(=O)O)c2c(/N=N/c3ccccc3)c(O)ccc2c1
GI50 (IGROV-1): > 100 µM (inactive)
GI50 (LOX IMVI): > 100 µM (inactive)
GI50 (OVCAR-8): > 100 µM (inactive)
GI50 (A498): > 100 µM (inactive)
GI50 (CAKI-1): > 100 µM (inactive)
GI50 (SF-295): > 100 µM (inactive)
GI50 (MDA-N): > 100 µM (inactive)
GI50 (Hs-578T): > 100 µM (inactive)
GI50 (T47D): > 100 µM (inactive)
GI50 (SNB-19): > 100 µM (inactive)
GI50 (SK-OV-3): > 100 µM (inactive)
GI50 (SK-MEL-5): > 100 µM (inactive)
GI50 (MOLT-4): > 100 µM (inactive)
GI50 (HOP-92): > 100 µM (inactive)
GI50 (SF-268): > 100 µM (inactive)
GI50 (SW-620): > 100 µM (inactive)
GI50 (HOP-62): > 100 µM (inactive)
GI50 (HCT-116): > 100 µM (inactive)
GI50 (K562): > 100 µM (inactive)
GI50 (786-0): > 100 µM (inactive)
GI50 (UACC-257): > 100 µM (inactive)
GI50 (UACC-62): > 100 µM (inactive)
GI50 (HT-29): > 100 µM (inactive)
GI50 (M14): > 100 µM (inactive)
GI50 (OVCAR-5): > 100 µM (inactive)
GI50 (UO-31): > 100 µM (inactive)
GI50 (RXF 393): > 100 µM (inactive)
GI50 (HCT-15): > 100 µM
GI50 (PC-3): > 100 µM (inactive)
GI50 (DU-145): > 100 µM (inactive)
GI50 (SK-MEL-28): > 100 µM (inactive)
GI50 (U-251): > 100 µM (inactive)
GI50 (MDA-MB-231): > 100 µM (inactive)
GI50 (NCI/ADR-RES): > 100 µM (inactive)
GI50 (A549): > 100 µM (inactive)
GI50 (OVCAR-4): > 100 µM (inactive)
GI50 (KM12): > 100 µM (inactive)
GI50 (NCI-H23): > 100 µM (inactive)
GI50 (MDA-MB-435): > 100 µM (inactive)
GI50 (RPMI-8226): > 100 µM (inactive)
GI50 (SNB-75): > 100 µM (inactive)
GI50 (SK-MEL-2): > 100 µM (inactive)
GI50 (NCI-H226): > 100 µM (inactive)
GI50 (CCRF-CEM): > 100 µM (inactive)
GI50 (OVCAR-3): > 100 µM (inactive)
GI50 (COLO 205): > 100 µM (inactive)
GI50 (BT-549): > 100 µM (inactive)
GI50 (SN12C): > 100 µM (inactive)
GI50 (TK-10): > 100 µM (inactive)
